Measured values reported in patent US20240317775A1, “H4 Antagonist Compounds” (HEPTARES THERAPEUTICS LIMITED, priority 2020, published 2024).

Legend:
Type in all cases: cell-based
hERG [1] = target: T1, hERG (Homo sapiens, UniProt Q12809); assay: hERG pIC50 assay (QPatch automated patch clamp, CHO cells, 1, 3, 10 and 30 μM); conditions: CHO cells expressing hERG, 1-30 μM, ≤4.0 = fails to reach >40% block at 30 μM
Excerpt: (§1) Series resistance (4-15 MΩ) was compensated by >80%.

human H4 receptor [2] = target: T2, human H4 receptor (Homo sapiens, UniProt Q9H3N8); assay: H4 Antagonist Functional cAMP Gi Assay; conditions: HEKf cells expressing human H4 receptor, functional antagonist pKb by Cheng-Prusoff vs histamine; for Kb: read-out: Human H4 cAMP fpKb (converted)
T2 construct: expressed in transfected cells; host or cells: HEKf cells infected with baculovirus
Procedure: HEKf cells were infected overnight using baculovirus expressing the human H4 receptor, then centrifuged at 1,200 rpm for 5 min, frozen in cell freezing medium (Sigma) and stored at −150° C. On the day of assay, the cells were thawed and resuspended in HBSS with 500 nM IBMX to achieve a density of 1,500 cells/well. H4 ligands were prepared in DMSO and stamped by LabCyte ECHO acoustic dispensing at 25 nL in low volume plates. 10 μL/well cells were plated in the presence of 1 μM forskolin, subjected to centrifugation at 1,200 rpm for 1 min and incubated for 30 min prior to addition of Cisbio cAMP detection reagents to a total volume 20 μL/well. […] Following detection reagent addition and shaking at room temperature for 60 min, cAMP accumulation was measured using HTRF on a PheraStar plate reader. EC50 values were generated using a 4-parameter logistical fit equation to quantify agonist potencies. Functional antagonist affinity values were generated using the Cheng-Prusoff equation to calculate a pKb value using the antagonist assay data.

human H4 receptor [3] = target: T2, human H4 receptor; assay: H4 Antagonist Functional Dynamic Mass Redistribution Assay; conditions: HEKf cells expressing human H4 receptor, functional antagonist pKb by Cheng-Prusoff vs histamine EC80; for Kb: read-out: Human H4 DMR fpKb (converted)
Procedure: HEKf cells were infected using baculovirus expressing the human H4 receptor, plated into fibronectin-coated EPIC plates at a density of 10,000 cells/well and incubated overnight at 37° C. The medium on cells was changed to 30 μL HBSS with 20 mM HEPES per well and 30 nL DMSO were added per well by LabCyte ECHO acoustic dispensing. Following 2 h equilibration at room temperature, 30 nL of H4 ligands prepared in DMSO were stamped by LabCyte ECHO acoustic dispensing into seeded EPIC plates and cellular dynamic mass redistribution was monitored using a Corning EPIC plate reader. Following 45 min measurement, 30 nL/well of histamine EC80 was added and monitored to obtain antagonist assay data. Maximum baseline-corrected responses in pm were used to generate concentration response curves. EC50 values were generated using a 4-parameter logistical fit equation to quantify agonist potencies. Functional antagonist affinity values were generated using the Cheng-Prusoff equation to calculate a pKb value using the antagonist assay data.

hERG [4] = target: T1, hERG; assay: hERG single-concentration assay (QPatch automated patch clamp, CHO cells, 30 μM); conditions: CHO cells stably expressing hERG
Excerpt: as §1

T1 sequence (Q12809 whole entry): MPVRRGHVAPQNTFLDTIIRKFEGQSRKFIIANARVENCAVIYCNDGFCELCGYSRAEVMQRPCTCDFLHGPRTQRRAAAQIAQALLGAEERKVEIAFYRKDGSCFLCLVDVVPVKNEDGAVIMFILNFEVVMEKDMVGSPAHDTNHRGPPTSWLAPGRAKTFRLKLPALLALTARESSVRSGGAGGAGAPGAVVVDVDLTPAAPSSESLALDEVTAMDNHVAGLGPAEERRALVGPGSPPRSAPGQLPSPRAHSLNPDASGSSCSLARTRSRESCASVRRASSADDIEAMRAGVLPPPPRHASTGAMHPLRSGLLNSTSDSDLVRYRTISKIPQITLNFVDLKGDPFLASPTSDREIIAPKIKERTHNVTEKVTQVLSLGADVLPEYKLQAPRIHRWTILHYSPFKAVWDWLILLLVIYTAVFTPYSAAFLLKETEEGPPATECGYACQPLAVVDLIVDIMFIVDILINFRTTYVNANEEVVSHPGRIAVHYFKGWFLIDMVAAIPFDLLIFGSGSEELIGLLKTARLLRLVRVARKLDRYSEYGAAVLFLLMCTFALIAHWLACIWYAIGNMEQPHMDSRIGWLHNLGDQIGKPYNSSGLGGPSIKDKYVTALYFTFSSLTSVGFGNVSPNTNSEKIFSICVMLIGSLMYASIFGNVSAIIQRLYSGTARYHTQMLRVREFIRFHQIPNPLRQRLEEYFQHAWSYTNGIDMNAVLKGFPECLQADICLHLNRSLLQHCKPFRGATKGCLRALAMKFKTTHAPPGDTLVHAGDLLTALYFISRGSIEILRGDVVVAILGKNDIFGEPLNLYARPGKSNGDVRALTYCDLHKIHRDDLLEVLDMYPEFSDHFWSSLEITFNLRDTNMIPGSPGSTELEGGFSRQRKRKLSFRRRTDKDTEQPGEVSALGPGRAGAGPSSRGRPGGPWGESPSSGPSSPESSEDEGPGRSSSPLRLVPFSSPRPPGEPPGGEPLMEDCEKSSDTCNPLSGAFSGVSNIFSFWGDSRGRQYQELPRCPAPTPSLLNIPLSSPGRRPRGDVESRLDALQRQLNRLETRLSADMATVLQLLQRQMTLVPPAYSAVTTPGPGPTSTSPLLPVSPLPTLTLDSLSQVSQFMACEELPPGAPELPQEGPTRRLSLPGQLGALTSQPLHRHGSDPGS

Kb (human H4 receptor [2])	Kb (human H4 receptor [3])	Compound	inhibition at 30 µM (hERG [4])	also measured
0.631 nM	–	CC(C)[C@@H]1COc2c(nc(N)nc2N2CC[C@@H](N)C2)N1 [Example 2-2, (R)-4-((R)-3-Aminopyrrolidin-1-yl)-7-isopropyl-7,8-dihydro-6H-pyrimido[5,4-b][1,4]oxazin-2-amine]	–	IC50 (hERG [1]): ≥ 100000 nM
–	10 nM	CCC1(C)CCOc2c(nc(N)nc2N2CC[C@@H](NC)C2)N1 (stereo partly drawn) [Example 17-10, 8-ethyl-8-methyl-4-[(3R)-3-(methylamino)pyrrolidin-1-yl]-6,7,8,9-tetrahydropyrimido[5,4-b][1,4]oxazepin-2-amine]	–	–
–	–	CN1CCN(C(=O)c2cc3cc(Cl)ccc3[nH]2)CC1 [JNJ-7777120, reference compound]	–	IC50 (hERG [1]): 3980 nM
–	10 nM	CC[C@@H]1CCOc2c(nc(N)nc2N2CC[C@@H](N)C2)N1 [Example 17-7, 4-[(3R)-3-aminopyrrolidin-1-yl]-8-ethyl-6,7,8,9-tetrahydropyrimido[5,4-b][1,4]oxazepin-2-amine]	–	–
2.51 nM	5.01 nM	CN[C@@H]1CCN(c2nc(N)nc3c2OCC[C@@H](C)N3)C1 [Example 11-2, (R)-8-Methyl-4-((R)-3-(methylamino)pyrrolidin-1-yl)-6,7,8,9-tetrahydropyrimido[5,4-b][1,4]oxazepin-2-amine]	13%	–
0.794 nM	–	CN[C@@H]1CCN(c2nc(N)nc3c2OC[C@@H](C(C)C)N3)C1 [Example 1-4, (R)-7-Isopropyl-4-((R)-3-(methylamino)pyrrolidin-1-yl)-7,8-dihydro-6H-pyrimido[5,4-b][1,4]oxazin-2-amine]	20%	IC50 (hERG [1]): ≥ 100000 nM
31.6 nM	10 nM	CN[C@@H]1CCN(c2nc(N)nc3c2OCC[C@H](C)N3)C1 [Example 11-3, (S)-8-Methyl-4-((R)-3-(methylamino)pyrrolidin-1-yl)-6,7,8,9-tetrahydropyrimido[5,4-b][1,4]oxazepin-2-amine]	–	–
–	–	CC(C)c1cc(N2CC[C@@H](N)C2)nc(N)n1 [JNJ-39758979, reference compound]	–	Human H4 DMR fpKb (human H4 receptor [3]): 8.5; Human H4 cAMP fpKb (human H4 receptor [2]): 8.1
–	3.98 nM	CN[C@@H]1CCN(c2ncnc3c2OCC2(CC(F)(F)C2)N3)C1 [Example 17-13, (3R)-1-(3,3-difluoro-6′H,8′H-spiro[cyclobutane-1,7′-pyrimido[5,4-b][1,4]oxazin]-4′-yl)-N-methylpyrrolidin-3-amine]	–	–
–	200 nM	CN[C@@H]1CCN(c2nc(N)nc3c2OCC(C)(C)CN3)C1 [Example 17-5, 7,7-dimethyl-4-[(3R)-3-(methylamino)pyrrolidin-1-yl]-6,7,8,9-tetrahydropyrimido[5,4-b][1,4]oxazepin-2-amine]	–	–
–	7.94 nM	CN[C@@H]1CCN(c2ncnc3c2OCC2(CCCC2)N3)C1 [Example 17-12, (3R)—N-methyl-1-(6′H,8′H-spiro[cyclopentane-1,7′-pyrimido[5,4-b][1,4]oxazin]-4′-yl)pyrrolidin-3-amine]	–	–
–	7.94 nM	CC[C@]1(C)COc2c(nc(N)nc2N2CC[C@@H](NC)C2)N1 [Example 17-14, 7-ethyl-7-methyl-4-[(3R)-3-(methylamino)pyrrolidin-1-yl]-7,8-dihydro-6H-pyrimido[5,4-b][1,4]oxazin-2-amine]	–	–
–	39.8 nM	CCC1(C)CCOc2c(ncnc2N2CC[C@@H](NC)C2)N1 (stereo partly drawn) [Example 17-9, (3R)-1-(8-ethyl-8-methyl-6,7,8,9-tetrahydropyrimido[5,4-b][1,4]oxazepin-4-yl)-N-methylpyrrolidin-3-amine]	–	–
–	7.94 nM	CN[C@@H]1CCN(c2nc(N)nc3c2OCC2(CCCC2)N3)C1 [Example 17-11, 4′-[(3R)-3-(methylamino)pyrrolidin-1-yl]-6′H,8′H-spiro[cyclopentane-1,7′-pyrimido[5,4-b][1,4]oxazin]-2′-amine]	–	–
2 nM	–	CN[C@@H]1CCN(c2nc(N)nc3c2OC[C@@H](C(C)(C)OC)N3)C1 [Example 1-12, (S)-7-(2-Methoxypropan-2-yl)-4-((R)-3-(methylamino)pyrrolidin-1-yl)-7,8-dihydro-6H-pyrimido[5,4-b][1,4]oxazin-2-amine]	8.3%	–
6.31 nM	–	CN[C@@H]1CCN(c2nc(N)nc3c2OCC(C)(C)N3)C1 [Example 1-14, (R)-7,7-Dimethyl-4-(3-(methylamino)pyrrolidin-1-yl)-7,8-dihydro-6H-pyrimido[5,4-b][1,4]oxazin-2-amine]	11%	–
–	10 nM	CC[C@@H]1CCOc2c(nc(N)nc2N2CC(NC)C2)N1 [Example 17-6, 8-ethyl-4-[3-(methylamino)azetidin-1-yl]-6,7,8,9-tetrahydropyrimido[5,4-b][1,4]oxazepin-2-amine]	–	–
6.31 nM	–	CN[C@@H]1CCN(c2nc(N)nc3c2OC[C@@H]([C@@H](C)OC)N3)C1 [Example 1-10, (S)-7-((R)-1-Methoxyethyl)-4-((R)-3-(methylamino)pyrrolidin-1-yl)-7,8-dihydro-6H-pyrimido[5,4-b][1,4]oxazin-2-amine]	12%	–
3.16 nM	0.794 nM	CN[C@@H]1CCN(c2ncnc3c2OCC[C@@H](C(C)C)N3)C1 [Example 14-1, (R)-1-((S)-8-Isopropyl-6,7,8,9-tetrahydropyrimido[5,4-b][1,4]oxazepin-4-yl)-N-methylpyrrolidin-3-amine]	41%	–
–	7.94 nM	CN[C@@H]1CCN(c2nc(N)nc3c2OCC2(CC(F)(F)C2)N3)C1 [Example 17-15, 3,3-difluoro-4′-[(3R)-3-(methylamino)pyrrolidin-1-yl]-6′H,8′H-spiro[cyclobutane-1,7′-pyrimido[5,4-b][1,4]oxazin]-2′-amine]	–	–
–	20 nM	Nc1nc2c(c(N3CC[C@@H](N)C3)n1)OCC1CCCC1N2 (stereo partly drawn) [Example 17-2, 4-[(3R)-3-aminopyrrolidin-1-yl]-6a, 7,8,9,9a, 10-hexahydro-6H-cyclopenta[e]pyrimido[5,4-b][1,4]oxazepin-2-amine]	–	–
–	12.6 nM	CN[C@@H]1CCN(c2nc(N)nc3c2OCC2CCCC2N3)C1 (stereo partly drawn) [Example 17-1, 4-[(3R)-3-(methylamino)pyrrolidin-1-yl]-6a,7,8,9,9a, 10-hexahydro-6H-cyclopenta[e]pyrimido[5,4-b][1,4]oxazepin-2-amine]	29%	–
12.6 nM	–	CN[C@@H]1CCN(c2nc(N)nc3c2OCC2CCCN32)C1 (stereo partly drawn) [Example 1-21, 4-((R)-3-(Methylamino)pyrrolidin-1-yl)-6a,7,8,9-tetrahydro-6H-pyrimido[5,4-b]pyrrolo[1,2-d][1,4]oxazin-2-amine]	8.5%	–
–	31.6 nM	CNC1CN(c2nc(N)nc3c2OCC2CCCC2N3)C1 (centres unmarked) [Example 17-3, 4-[3-(methylamino)azetidin-1-yl]-6a, 7,8,9,9a, 10-hexahydro-6H-cyclopenta[e]pyrimido[5,4-b][1,4]oxazepin-2-amine]	42%	–
5.01 nM	–	CC(C)[C@@H]1COc2c(ncnc2N2CC[C@@H](N)C2)N1 [Example 8-1, (R)-1-((R)-7-Isopropyl-7,8-dihydro-6H-pyrimido[5,4-b][1,4]oxazin-4-yl)pyrrolidin-3-amine]	21%	–
10 nM	–	CN[C@@H]1CCN(c2nc(N)nc3c2OCC(C(F)(F)F)N3)C1 (stereo partly drawn) [Example 1-8, 4-((R)-3-(Methylamino)pyrrolidin-1-yl)-7-(trifluoromethyl)-7,8-dihydro-6H-pyrimido[5,4-b][1,4]oxazin-2-amine]	19%	–
63.1 nM	50.1 nM	CN[C@@H]1CCN(c2nc(N)nc3c2OCC(C(C)C)CN3)C1 (stereo partly drawn) [Example 11-9, 7-Isopropyl-4-((R)-3-(methylamino)pyrrolidin-1-yl)-6,7,8,9-tetrahydropyrimido[5,4-b][1,4]oxazepin-2-amine]	–	–
–	2 nM	CN[C@@H]1CCN(c2nc(N)nc3c2OCC2(CCC2)N3)C1 [Example 17-4, 4′-[(3R)-3-(methylamino)pyrrolidin-1-yl]-6′H,8′H-spiro[cyclobutane-1,7′-pyrimido[5,4-b][1,4]oxazin]-2′-amine]	–	–

Compound	Kb (human H4 receptor [2])	Kb (human H4 receptor [3])	inhibition at 30 µM (hERG [4])	also measured
CC[C@@H]1CCOc2c(nc(N)nc2N2C[C@H]3CCCN[C@H]3C2)N1 [Example 17-8, 8-ethyl-4-[(4aR,7aR)-octahydro-6H-pyrrolo[3,4-b]pyridin-6-yl]-6,7,8,9-tetrahydropyrimido[5,4-b][1,4]oxazepin-2-amine]	–	15.8 nM	–	–
